From ChEMBL document CHEMBL1146326, “13C bis-labeled pyrroles: a tool for the identification of the rat metabolism of 3-methyl pyrrole-2,4-dicarboxylic acid 2-propyl ester 4-(1,2,2-trimethyl-propyl) ester” (Bioorg Med Chem Lett, 2007) come the findings set out here.

Structures are written as SMILES.

This assay deals with Metabotropic glutamate receptor 1 (Homo sapiens, UniProt Q13255). Description: Inhibition of recombinant mGluR1a receptor expressed in CHO cells. It is filed as cell-based.
Metabotropic glutamate receptor 1, sequence (Q13255 whole entry): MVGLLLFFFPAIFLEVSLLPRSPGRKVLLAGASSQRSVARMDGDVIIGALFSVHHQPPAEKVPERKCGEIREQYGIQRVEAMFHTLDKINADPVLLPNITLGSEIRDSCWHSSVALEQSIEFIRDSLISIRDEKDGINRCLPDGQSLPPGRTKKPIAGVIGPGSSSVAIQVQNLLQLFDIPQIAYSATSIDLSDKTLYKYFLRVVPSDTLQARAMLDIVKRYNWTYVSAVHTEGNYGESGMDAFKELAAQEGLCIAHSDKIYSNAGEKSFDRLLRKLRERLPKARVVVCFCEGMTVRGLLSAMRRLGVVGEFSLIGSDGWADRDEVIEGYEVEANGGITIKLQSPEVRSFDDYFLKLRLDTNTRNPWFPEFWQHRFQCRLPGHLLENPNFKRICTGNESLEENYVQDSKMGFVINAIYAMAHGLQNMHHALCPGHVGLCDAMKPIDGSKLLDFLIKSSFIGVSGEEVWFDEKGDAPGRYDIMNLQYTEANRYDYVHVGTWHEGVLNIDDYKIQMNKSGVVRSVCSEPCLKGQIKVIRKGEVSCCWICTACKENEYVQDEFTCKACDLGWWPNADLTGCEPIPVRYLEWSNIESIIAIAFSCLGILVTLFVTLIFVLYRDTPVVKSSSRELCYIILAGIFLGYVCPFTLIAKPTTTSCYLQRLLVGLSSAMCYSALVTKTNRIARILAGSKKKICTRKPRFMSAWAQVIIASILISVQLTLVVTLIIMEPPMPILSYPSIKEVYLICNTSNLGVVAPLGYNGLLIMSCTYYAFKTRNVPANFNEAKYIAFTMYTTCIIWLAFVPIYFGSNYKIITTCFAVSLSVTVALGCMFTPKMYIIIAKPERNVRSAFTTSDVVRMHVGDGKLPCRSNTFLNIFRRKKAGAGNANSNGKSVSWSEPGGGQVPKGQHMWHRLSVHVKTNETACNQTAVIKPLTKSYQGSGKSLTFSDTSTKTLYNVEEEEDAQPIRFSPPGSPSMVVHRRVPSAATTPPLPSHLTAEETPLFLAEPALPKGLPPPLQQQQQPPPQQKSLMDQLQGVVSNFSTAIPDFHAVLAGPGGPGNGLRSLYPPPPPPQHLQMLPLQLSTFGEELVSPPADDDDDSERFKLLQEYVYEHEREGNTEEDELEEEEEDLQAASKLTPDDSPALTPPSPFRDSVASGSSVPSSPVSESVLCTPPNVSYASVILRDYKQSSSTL
`COCCNC(=O)c1[nH]c(C)c(C(=O)OC2CC3CCC2C3)c1C` (centres undefined): the IC50 was 316 nM.
With `CC(=O)NCCCCNC(=O)c1[nH]c(C)c(C(=O)OC2CC3CCC2C3)c1C` (centres undefined) the figure was 1000 nM; with `COCCNC(=O)c1[nH]cc(C(=O)OC2CC3CCC2C3)c1C` (centres undefined), 158 nM; with `CCOC(=O)c1[nH]cc(C(=O)OC2CC3CCC2C3)c1C` (centres undefined), 20 nM.
As to `COCCNC(=O)c1[nH]cc(C(=O)NC2CC3CCC2C3)c1C` (centres undefined), the half-maximal inhibitory concentration (IC50) is > 10000 nM.
Regarding `COCCNC(=O)c1[nH]cc(C(=O)O[C@@H](C)C(C)(C)C)c1C`, the IC50 was 31.6 nM.
With `CCCOC(=O)c1[nH]cc(C(=O)O[C@@H](C)C(C)(C)C)c1C` the figure was 3.98 nM; with `CC(=O)NCCCCNC(=O)c1[nH]cc(C(=O)OC2CC3CCC2C3)c1C` (centres undefined), 200 nM.
With `CCOC(=O)c1[nH]c(C)c(C(=O)OC2CC3CCC2C3)c1C` (centres undefined) the figure was 100 nM.

The IC50 is the point on the concentration scale where inhibition reaches its midpoint.
